A short description of data set [1]: Serum stability in 50% human serum at 37 °C (RP-HPLC, one-phase decay half-life). Particulars: for proteolytic stability compared to the parent L-peptides: 50% human serum, 37° C.; for half-life at 500 µM: human, serum (50% human serum).
Experimental: Serum stability analysis was conducted for each peptide (7×50 nmol) shown in Table 3 in 50% human serum (100 μL) at 37° C. At the end of each time point (0, 10, 30, 60, 120, 240, and 480 min), 1 M guanidine hydrochloride solution (200 μL) and ice-cold acetonitrile (600 μL) were added, and the serum-peptide solution was centrifuged at 14000 g for 10 min. The supernatant was lyophilised and redissolved in water (200 μL). All samples were analysed by RP-HPLC in the presence of phenol (50 nmol) as an internal standard, using water and acetonitrile containing 0.1% TFA, with a gradient of 10-80% acetonitrile over 30 min, and a flow rate of 1.5 mL/min. The percentage of peptide remaining was measured based on the area under curve. The percentage of peptide remaining versus time data was fitted to a non-linear one-phase exponential decay model in GraphPad Prism 9.2.0 to determine the half-life for each peptide.
For a further data set, the system named is fibroblasts. The experiment in a line: Viability of fibroblasts by MTS assay (cytotoxicity). Type of data set: cell-based, human. As to the method:
FIG. 5. Effect of the endosomal escape domain HA2 and lipidation of peptide-PMO conjugates on the viability of fibroblasts determined using MTS assay. UT, untreated control.
The peptide-PMO conjugates were tested up to 10 μM which is 10-fold greater than the concentration needed to achieve a high level of activity.

Square brackets hold non-standard residues; d marks the D form. Peptide text beside a SMILES is read from it. * marks the point of attachment. Myristoyl = CCCCCCCCCCCCCC(=O)*; PMO = not defined here; AEEA = NCCOCCOCC(=O)O; Ahx = NCCCCCC(=O)O; Mpa = O=C(O)CCS

Take `CC(C)C[C@@H](NC(=O)[C@@H](CCCNC(=N)N)NC(=O)[C@H](NC(=O)[C@@H](CCCNC(=N)N)NC(=O)[C@@H](CC(C)C)NC(=O)[C@@H](C)NC(=O)[C@@H](CO)NC(=O)[C@@H](Cc1c[nH]cn1)NC(=O)[C@@H](CC(C)C)NC(=O)[C@@H](CCCNC(=N)N)NC(=O)[C@@H](CCCCN)NC(=O)[C@@H](CC(C)C)NC(=O)[C@@H](CCCNC(=N)N)NC(=O)[C@@H](CCCCN)NC(=O)[C@@H](CCCNC(=N)N)NC(=O)[C@@H](CC(C)C)NC(=O)[C@@H](CC(C)C)NC(=O)[C@@H](CCCNC(=N)N)NC(=O)COCCOCCNC(=O)CCS)C(C)C)C(=O)O` [RI TPA-ApoE(133-150), TPA-mPEG-rllrkrlkrlhsalrvrl] ([Mpa][AEEA][dR][dL][dL][dR][dK][dR][dL][dK][dR][dL][dH][dS][dA][dL][dR][dV][dR][dL]-OH): in data set [1], the “proteolytic stability compared to the parent L-peptides” value is “significantly higher proteolytic stability” and the half-life – broadly, the time needed for the level to fall by half in the phase considered – at 500 µM was 11.2 h.

Take `CC[C@@H](C)[C@@H](NC(=O)[C@@H](C)NC(=O)[C@@H](Cc1c[nH]cn1)NC(=O)[C@@H](Cc1ccccc1)NC(=O)[C@H](NC(=O)[C@@H](Cc1c[nH]cn1)NC(=O)CNC(=O)CNC(=O)[C@@H](Cc1c[nH]c2ccccc12)NC(=O)[C@@H](Cc1c[nH]cn1)NC(=O)COCCOCCNC(=O)CCS)[C@H](C)CC)C(=O)N[C@H](C)C(=O)N[C@H](Cc1c[nH]cn1)C(=O)N[C@H](Cc1ccccc1)C(=O)N[C@H](CC(C)C)C(=O)NCC(=O)NCCOCCOCC(=O)N[C@@H](CCCCN)C(=O)NCCOCCOCC(=O)N[C@H](CCCNC(=N)N)C(=O)N[C@H](CC(C)C)C(=O)N[C@H](CC(C)C)C(=O)N[C@H](CCCNC(=N)N)C(=O)N[C@H](CCCCN)C(=O)N[C@H](CCCNC(=N)N)C(=O)N[C@H](CC(C)C)C(=O)N[C@H](CCCCN)C(=O)N[C@H](CCCNC(=N)N)C(=O)N[C@H](CC(C)C)C(=O)N[C@H](Cc1c[nH]cn1)C(=O)N[C@H](CO)C(=O)N[C@H](C)C(=O)N[C@H](CC(C)C)C(=O)N[C@H](CCCNC(=N)N)C(=O)N[C@@H](C(=O)N[C@H](CCCNC(=N)N)C(=O)N[C@H](CC(C)C)C(=O)O)C(C)C` [RI TPA-HA2-ApoE(133-150), TPA-mPEG-hwgghifhaiahflg-mPEG-K-mPEG-rllrkrlkrlhsalrvrl] ([Mpa][AEEA][dH][dW]GG[dH][dI][dF][dH][dA][dI][dA][dH][dF][dL]G[AEEA]K[AEEA][dR][dL][dL][dR][dK][dR][dL][dK][dR][dL][dH][dS][dA][dL][dR][dV][dR][dL]-OH): in data set [1], the “proteolytic stability compared to the parent L-peptides” value was “significantly higher proteolytic stability” and the half-life at 500 µM is 1.6 h.

With `CC[C@@H](C)[C@@H](NC(=O)[C@@H](C)NC(=O)[C@@H](Cc1c[nH]cn1)NC(=O)[C@@H](Cc1ccccc1)NC(=O)[C@H](NC(=O)[C@@H](Cc1c[nH]cn1)NC(=O)CNC(=O)CNC(=O)[C@@H](Cc1c[nH]c2ccccc12)NC(=O)[C@@H](Cc1c[nH]cn1)NC(=O)COCCOCCNC(=O)CCS)[C@H](C)CC)C(=O)N[C@H](C)C(=O)N[C@H](Cc1c[nH]cn1)C(=O)N[C@H](Cc1ccccc1)C(=O)N[C@H](CC(C)C)C(=O)NCC(=O)NCCOCCOCC(=O)N[C@@H](CCCCN)C(=O)NCCOCCOCC(=O)N[C@H](CCCNC(=N)N)C(=O)N[C@H](CC(C)C)C(=O)N[C@H](CC(C)C)C(=O)N[C@H](CCCNC(=N)N)C(=O)N[C@H](CCCCN)C(=O)N[C@H](CCCNC(=N)N)C(=O)N[C@H](CC(C)C)C(=O)N[C@H](CCCCN)C(=O)N[C@H](CCCNC(=N)N)C(=O)N[C@H](CC(C)C)C(=O)O` [RI TPA-HA2-ApoE(141-150), TPA-mPEG-hwgghifhaiahflg-mPEG-K-mPEG-rllrkrlkrl] ([Mpa][AEEA][dH][dW]GG[dH][dI][dF][dH][dA][dI][dA][dH][dF][dL]G[AEEA]K[AEEA][dR][dL][dL][dR][dK][dR][dL][dK][dR][dL]-OH), the half-life at 500 µM in data set [1] is 0.4 h.

In data set [1], `CC[C@H](C)[C@H](NC(=O)[C@H](C)NC(=O)[C@H](Cc1c[nH]cn1)NC(=O)[C@H](Cc1ccccc1)NC(=O)[C@H](CC(C)C)NC(=O)CNC(=O)COCCOCCNC(=O)CCS)C(=O)N[C@@H](C)C(=O)N[C@@H](Cc1c[nH]cn1)C(=O)N[C@@H](Cc1ccccc1)C(=O)N[C@H](C(=O)N[C@@H](Cc1c[nH]cn1)C(=O)NCC(=O)NCC(=O)N[C@@H](Cc1c[nH]c2ccccc12)C(=O)N[C@@H](Cc1c[nH]cn1)C(=O)NCCOCCOCC(=O)N[C@@H](CC(C)C)C(=O)N[C@@H](CCCNC(=N)N)C(=O)N[C@H](C(=O)N[C@@H](CCCNC(=N)N)C(=O)N[C@@H](CC(C)C)C(=O)N[C@@H](C)C(=O)N[C@@H](CO)C(=O)N[C@@H](Cc1c[nH]cn1)C(=O)N[C@@H](CC(C)C)C(=O)N[C@@H](CCCNC(=N)N)C(=O)N[C@@H](CCCCN)C(=O)N[C@@H](CC(C)C)C(=O)N[C@@H](CCCNC(=N)N)C(=O)N[C@@H](CCCCN)C(=O)N[C@@H](CCCNC(=N)N)C(=O)N[C@@H](CC(C)C)C(=O)N[C@@H](CC(C)C)C(=O)N[C@@H](CCCNC(=N)N)C(=O)O)C(C)C)[C@@H](C)CC` [TPA-HA2-ApoE(133-150), TPA-mPEG-GLFHAIAHFIHGGWH-mPEG-LR VRLASHLRKLRKRLLR] ([Mpa][AEEA]GLFHAIAHFIHGGWH[AEEA]LRVRLASHLRKLRKRLLR-OH) showed a half-life at 500 µM of 1.1 h.

Consider “Myr-GLFHAIAHFIHGGWH-X-LRKLRKRLLR-X-C-PMO ({Myristoyl-Gly-Leu-Phe-H2N-Ala-Ile-Ala-H2N-Phe-Ile-H2N-Gly-Gly-Trp-H2N-Ahx}-LRKLRKRLLR[Ahx]C-{PMO}; reading uncertain; also: printed as Myr-GLFHAIAHFIHGGWH-X-LRKLRKRLLR-X-C-PMO; UniProt P02649 159-168, looked up, fragment) [Myr-HA2-ApoE(141-150)-PMO]”, for which the “effect on cell viability” value is recorded as “decrease in cell viability” with fibroblasts (at 10 μM) and “None of the P-PMO conjugates had a significant effect on cell viability” in the data set with fibroblasts (up to 5 μM).

In the case of “Myr-GLFHAIAHFIHGGWH-X-LRVRLASHLRKLRKRLLR-X-C-PMO [Myr-HA2-ApoE(133-150)-PMO]”, the “effect on cell viability” value is listed as “decrease in cell viability” in the data set with fibroblasts (at 10 μM) and “None of the P-PMO conjugates had a significant effect on cell viability” with fibroblasts (up to 5 μM).

The values are drawn from patent US20230399378A1, “PEPTIDE-BASED DELIVERY OF AGENTS” (THE FLOREY INSTITUTE OF NEUROSCIENCE AND MENTAL HEALTH, priority 2020, published 2023).
